Data from US20240124432A1, “HERBICIDAL COMPOUNDS” (SYNGENTA CROP PROTECTION AG, priority 2020, published 2024).

Legend:
Type in all cases: in vivo
AMAPA [1] = test: Pre-emergence biological efficacy; details: Amaranthus palmeri, 312 h, evaluated after 13 days, read-out: damage to plant (100=total damage to plant; 0=no damage to plant)
Procedure, shortened: (§1)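 Pre-emergence spray applied one day after sowing in standard soil, compound delivered from an IF50-based emulsifiable formulation diluted in 0.2% Genapol XO80. Plants then grew under glasshouse conditions for 13 days before damage was rated on a 0 (none) to 100 (total) scale.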

ECHCG [2] = test: Pre-emergence biological efficacy; details: Echinochloa crus-galli, 312 h, evaluated after 13 days, read-out: damage to plant (100=total damage to plant; 0=no damage to plant)
Procedure, shortened: as §1

EPHHL [3] = test: Pre-emergence biological efficacy; details: Euphorbia heterophylla, 312 h, evaluated after 13 days, read-out: damage to plant (100=total damage to plant; 0=no damage to plant)
Procedure, shortened: as §1

IPOHE [4] = test: Pre-emergence biological efficacy; details: Ipomoea hederacea, 312 h, evaluated after 13 days, read-out: damage to plant (100=total damage to plant; 0=no damage to plant)
Procedure, shortened: as §1

LOLPE [5] = test: Pre-emergence biological efficacy; details: Lolium perenne, 312 h, evaluated after 13 days, read-out: damage to plant (100=total damage to plant; 0=no damage to plant)
Procedure, shortened: as §1

SETFA [6] = test: Pre-emergence biological efficacy; details: Setaria faberi, 312 h, evaluated after 13 days, read-out: damage to plant (100=total damage to plant; 0=no damage to plant)
Procedure, shortened: as §1

AMAPA [7] = test: Post-emergence biological efficacy; details: Amaranthus palmeri, 312 h, evaluated after 13 days, read-out: damage to plant (100=total damage to plant; 0=no damage to plant)
Procedure, shortened: (§2)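 Plants grown 14 days in glasshouse, then sprayed post-emergence with compound formulated in IF50 and diluted in 0.2% Genapol XO80 to the desired dose. Damage scored after 13 days on a 0–100 scale (100 = total damage).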

CHEAL = test: Post-emergence biological efficacy; details: Chenopodium album, 312 h, evaluated after 13 days, read-out: damage to plant (100=total damage to plant; 0=no damage to plant)
Procedure, shortened: as §2

DIGSA = test: Post-emergence biological efficacy; details: Digitaria sanguinalis, 312 h, evaluated after 13 days, read-out: damage to plant (100=total damage to plant; 0=no damage to plant)
Procedure, shortened: as §2

ECHCG [8] = test: Post-emergence biological efficacy; details: Echinochloa crus-galli, 312 h, evaluated after 13 days, read-out: damage to plant (100=total damage to plant; 0=no damage to plant)
Procedure, shortened: as §2

ELEIN = test: Post-emergence biological efficacy; details: 312 h, evaluated after 13 days, read-out: damage to plant (100=total damage to plant; 0=no damage to plant)
Procedure, shortened: as §2

EPHHL [9] = test: Post-emergence biological efficacy; details: Euphorbia heterophylla, 312 h, evaluated after 13 days, read-out: damage to plant (100=total damage to plant; 0=no damage to plant)
Procedure, shortened: as §2

IPOHE [10] = test: Post-emergence biological efficacy; details: Ipomoea hederacea, 312 h, evaluated after 13 days, read-out: damage to plant (100=total damage to plant; 0=no damage to plant)
Procedure, shortened: as §2

LOLPE [11] = test: Post-emergence biological efficacy; details: Lolium perenne, 312 h, evaluated after 13 days, read-out: damage to plant (100=total damage to plant; 0=no damage to plant)
Procedure, shortened: as §2

SETFA [12] = test: Post-emergence biological efficacy; details: Setaria faberi, 312 h, evaluated after 13 days, read-out: damage to plant (100=total damage to plant; 0=no damage to plant)
Procedure, shortened: as §2

SMILES	pest or weed control at 250 g/ha (AMAPA [1]) [%]	pest or weed control at 250 g/ha (ECHCG [2]) [%]	pest or weed control at 250 g/ha (EPHHL [3]) [%]	pest or weed control at 250 g/ha (IPOHE [4]) [%]	pest or weed control at 250 g/ha (LOLPE [5]) [%]	pest or weed control at 250 g/ha (SETFA [6]) [%]	pest or weed control at 250 g/ha (AMAPA [7]) [%]	pest or weed control at 250 g/ha (CHEAL) [%]	pest or weed control at 250 g/ha (DIGSA) [%]	pest or weed control at 250 g/ha (ECHCG [8]) [%]	pest or weed control at 250 g/ha (ELEIN) [%]	pest or weed control at 250 g/ha (EPHHL [9]) [%]	pest or weed control at 250 g/ha (IPOHE [10]) [%]	pest or weed control at 250 g/ha (LOLPE [11]) [%]	pest or weed control at 250 g/ha (SETFA [12]) [%]
CCOC(=O)C1(C)CC(c2cc(-c3ncc(Br)cc3Cl)c(F)cc2Cl)=NO1 (stereo not drawn) [Compound 1-559, Ethyl 3-[5-(5-bromo-3-chloro-2-pyridyl)-2-chloro-4-fluoro-phenyl]-5-methyl-4H-isoxazole-5-carboxylate]	100	90	50	10	50	80	100	100	80	100	90	100	100	90	100
CCOC(=O)C1(C)CC(c2cc(-c3ncc(C(F)(F)F)cc3Br)c(F)cc2Cl)=NO1 (stereo not drawn) [Compound 1-571, Ethyl 3-[5-[3-bromo-5-(trifluoromethyl)-2-pyridyl]-2-chloro-4-fluoro-phenyl]-5-methyl-4H-isoxazole-5-carboxylate]	100	10	0	0	70	10	100	100	60	30	90	100	70	90	90
CCOC(=O)C1(C)CC(c2cc(-c3ncc(C(F)F)cc3Cl)c(F)cc2Cl)=NO1 (stereo not drawn) [Compound 1-583, Ethyl 3-[2-chloro-5-[3-chloro-5-(difluoromethyl)-2-pyridyl]-4-fluoro-phenyl]-5-methyl-4H-isoxazole-5-carboxylate]	100	90	100	60	60	90	100	100	90	100	90	100	100	100	100
CCOC(=O)C1(C)CC(c2cc(-c3ncc(C(C)(F)F)cc3Cl)c(F)cc2Cl)=NO1 (stereo not drawn) [Compound 1-595, ethyl 3-[2-chloro-5-[3-chloro-5-(1,1-difluoroethyl)-2-pyridyl]-4-fluoro-phenyl]-5-methyl-4H-isoxazole-5-carboxylate]	100	100	100	80	90	100	100	100	100	100	100	100	100	100	100
CCOC(=O)C1(C)CC(c2cc(-c3ncc(C#N)cc3Cl)c(F)cc2Cl)=NO1 (stereo not drawn) [Compound 1-607, Ethyl 3-[2-chloro-5-(3-chloro-5-cyano-2-pyridyl)-4-fluoro-phenyl]-5-methyl-4H-isoxazole-5-carboxylate]	100	70	50	30	20	10	100	100	70	40	60	100	100	70	80
CCOC(=O)C1(C)CC(c2cc(-c3ncc(C(C)=O)cc3Cl)c(F)cc2Cl)=NO1 (stereo not drawn) [Compound 1-631, Ethyl 3-[5-(5-acetyl-3-chloro-2-pyridyl)-2-chloro-4-fluoro-phenyl]-5-methyl-4H-isoxazole-5-carboxylate]	0	0	0	0	0	0	10	20	30	40	10	20	40	0	10
CCOC(=O)C1(C)CC(c2cc(-c3ncc(S(C)(=O)=O)cc3Cl)c(F)cc2Cl)=NO1 (stereo not drawn) [Compound 1-643, Ethyl 3-[2-chloro-5-(3-chloro-5-methylsulfonyl-2-pyridyl)-4-fluoro-phenyl]-5-methyl-4H-isoxazole-5-carboxylate]	100	100	100	100	100	100	100	100	100	100	100	100	100	100	100
CCOC(=O)C1(C)CC(c2cc(-c3ccc(C(F)(F)F)nc3Cl)c(F)cc2Cl)=NO1 (stereo not drawn) [Compound 1-655, Ethyl 3-[2-chloro-5-[2-chloro-6-(trifluoromethyl)-3-pyridyl]-4-fluoro-phenyl]-5-methyl-4H-isoxazole-5-carboxylate]	100	40	90	40	40	30	100	100	70	90	80	100	100	80	90
CCOC(=O)C1(C)CC(c2cc(-c3c(Cl)cc(C(F)(F)F)c[n+]3[O-])ccc2Cl)=NO1 (stereo not drawn) [Compound 1-663, Ethyl 3-[2-chloro-5-(3-chloro-1-oxido-5-trifluoromethyl-2-pyridyl)-phenyl]-5-methyl-4H-isoxazole-5-carboxylate]	100	30	90	90	50	40	100	100	100	100	100	100	100	100	100
